The results in this text go back to BindingDB's records for doi:10.1016/s0960-894x(99)00444-8 (The University of Montana, 1999).

Structures are written as SMILES. pKi: −log10 of the molar value.

This assay addresses Vesicular glutamate transporter 1 (Rattus norvegicus) (UniProt Q62634). In words: Compound was evaluated for the binding affinity against glutamate vesicular transport (GVT).

Chain of Vesicular glutamate transporter 1 (Rattus norvegicus) (Q62634 whole entry, looked up): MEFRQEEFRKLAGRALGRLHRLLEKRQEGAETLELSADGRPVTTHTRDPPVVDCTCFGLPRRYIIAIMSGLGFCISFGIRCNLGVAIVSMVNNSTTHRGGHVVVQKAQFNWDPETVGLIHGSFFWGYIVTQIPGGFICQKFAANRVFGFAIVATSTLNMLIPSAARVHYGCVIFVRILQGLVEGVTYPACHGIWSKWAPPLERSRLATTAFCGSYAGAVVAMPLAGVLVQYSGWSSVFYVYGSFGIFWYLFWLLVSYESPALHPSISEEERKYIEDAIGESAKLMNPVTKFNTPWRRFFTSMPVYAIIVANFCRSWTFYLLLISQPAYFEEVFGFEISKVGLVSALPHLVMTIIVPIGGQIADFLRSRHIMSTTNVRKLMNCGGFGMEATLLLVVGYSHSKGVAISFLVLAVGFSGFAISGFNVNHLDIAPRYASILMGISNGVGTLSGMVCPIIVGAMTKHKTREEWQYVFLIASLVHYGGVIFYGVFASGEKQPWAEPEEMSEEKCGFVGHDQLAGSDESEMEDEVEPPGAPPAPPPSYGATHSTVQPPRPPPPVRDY

One may read the pKi as −log10 of the Ki, conventionally taken in molar units. A high value points to a small Ki. `O=C(O)c1cc(C(=O)O)c2cc(OCc3ccccc3)ccc2n1` [6-Benzyloxy-quinoline-2,4-dicarboxylic acid] had a pKi of 3.69.
